Substitutions are numbered along the chain they refer to. Like-named read-outs stand apart in the source and are kept apart here.
Key:
H874Y mutated AR = target: T1, H874Y mutated AR (Homo sapiens, UniProt P10275, H875Y); experiment: Luciferase assay for AR transactivation, H874Y AR, PC-3 cells; assay type: cell-based; conditions: 0.1 nM DHT; for suppression of DHT-induced transactivation of H874Y AR: test compound 0.1-1 μM, PC-3 cells; for Antiandrogenic activity evaluated by luciferase assay in PC-3 cells H874Y: test compound 1 μM
T1 sequence (P10275 1-920 H875Y): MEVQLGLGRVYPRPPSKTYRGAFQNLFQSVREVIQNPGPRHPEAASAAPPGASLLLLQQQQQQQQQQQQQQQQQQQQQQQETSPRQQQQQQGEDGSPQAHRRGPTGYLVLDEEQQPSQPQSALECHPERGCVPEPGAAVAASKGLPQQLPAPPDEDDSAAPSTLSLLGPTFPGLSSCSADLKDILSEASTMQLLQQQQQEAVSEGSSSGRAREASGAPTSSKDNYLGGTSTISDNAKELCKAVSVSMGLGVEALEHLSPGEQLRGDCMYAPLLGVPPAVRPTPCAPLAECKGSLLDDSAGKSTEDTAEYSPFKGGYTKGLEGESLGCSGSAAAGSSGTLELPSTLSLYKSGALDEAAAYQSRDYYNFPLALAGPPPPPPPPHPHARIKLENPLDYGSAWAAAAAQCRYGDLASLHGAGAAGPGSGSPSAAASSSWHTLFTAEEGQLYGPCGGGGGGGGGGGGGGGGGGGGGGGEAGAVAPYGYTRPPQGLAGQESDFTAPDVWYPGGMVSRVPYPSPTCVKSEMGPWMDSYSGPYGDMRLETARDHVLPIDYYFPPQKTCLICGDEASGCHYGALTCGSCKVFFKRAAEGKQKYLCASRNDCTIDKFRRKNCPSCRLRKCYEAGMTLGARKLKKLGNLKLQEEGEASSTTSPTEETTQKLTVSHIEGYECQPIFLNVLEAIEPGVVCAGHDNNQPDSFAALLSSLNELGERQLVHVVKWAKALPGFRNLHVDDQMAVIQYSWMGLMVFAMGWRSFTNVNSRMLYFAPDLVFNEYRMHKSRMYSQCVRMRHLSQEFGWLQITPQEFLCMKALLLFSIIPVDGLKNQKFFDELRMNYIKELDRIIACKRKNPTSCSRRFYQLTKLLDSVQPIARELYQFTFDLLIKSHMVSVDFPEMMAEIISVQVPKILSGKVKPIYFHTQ
Procedure: (§1) PC-3 cells were transiently transfected with pCMV-MMTV-Luc, Renilla null luciferase and AR expressing plasmids. The cells were treated with 0.1 nM DHT with and without test compound for 24 hr. Relative luciferase activity was determined by dual luciferase assay kit (Promega), standardized to Renilla luciferase control and normalized to 0.1 nM DHT without test compound (100%).
(§2) After 16 h, the cells were treated with 0.1 nM of DHT and test compounds at the designated concentration. After further 24 h, the cells were lysed in 100 μL/well passive lysis buffer, and 20 μL of the cell lysates was used for detection of the luciferase activity using Dual Luciferase Assay System (Promega). All experiments were run in triplicate. Relative luciferase activity is determined as the ratio of inducible firefly luciferase luminescence divided by the luminescence of the renilla luciferase control normalized to 0.1 nM DHT without test compounds.
(§3) The potency of antagonistic activity: ++>+.

LNCaP cells = experiment: MTT cell growth inhibition, LNCaP;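 further: MTT formazan absorbance at 600 nm read after 72 h of compound exposure, IC50 fitted by nonlinear regression of dose-response curves, samples run in triplicate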
wild-type human AR = target: T2, wild-type human AR (Homo sapiens, UniProt P10275); experiment: Luciferase assay for AR transactivation, wild-type AR, PC-3 cells; assay type: cell-based; set-up: Antiandrogenic activity evaluated by luciferase assay in PC-3 cells WT: key to the marks not given beside the values; conditions: 0.1 nM DHT; for suppression of DHT-induced transactivation of wild-type AR: test compound 0.1-1 μM, PC-3 cells; for Antiandrogenic activity evaluated by luciferase assay in PC-3 cells WT: test compound 1 μM
T2 construct: utilizing plasmid expressing a full length of AR; expressed in transfected cells; host or cells: PC-3 cells, plasmid pCMV-AR-wt
T2 sequence (P10275 1-920): T1 sequence (P10275 1-920 H875Y) with Y875H
Procedure: as §1, §2, §3
PC-3 cells were transiently transfected with plasmid expressing wild type human AR and MMTV-Luc. […] RLU, relative luciferase units, were normalized to that of 0.1 nM DHT alone.

[1] = read-out: Cellular IC50 (μM) LNCaP, Table 9

Row | SMILES | suppression of DHT-induced transactivation of H874Y AR (H874Y mutated AR) | Antiandrogenic activity evaluated by luciferase assay in PC-3 cells H874Y (H874Y mutated AR) | IC50 (LNCaP cells; [1]) [µM] | suppression of DHT-induced transactivation of wild-type AR (wild-type human AR) | Antiandrogenic activity evaluated by luciferase assay in PC-3 cells WT (wild-type human AR) | IC50 (LNCaP cells; read-out: IC50 in LNCaP cells) [µM]
1 | CC1(C)CCC(O)C=C1/C=C/C(=O)/C=C/c1cnc2ccccc2c1 (stereo not drawn) [Compound B95] | effective | ++ | 0.63 | effective | ++ | –
2 | CC1=C(/C=C/C(=O)/C=C/c2cccc(C(F)(F)F)c2)C(C)(C)CCC1O (racemic) [Compound B25] | dose-dependent activity | – | – | modest antiandrogenic activity | – | 0.74
3 | CC1(C)CCC(O)C=C1/C=C/C(=O)/C=C/c1csc2ccccc12 (stereo not drawn) [Compound B92] | pure antagonists | + | 1.1 | – | ++ | –
